Earlier results in patent publication US20240002325A1, “OXYLIPINS, PROCESSES FOR MAKING THE SAME, AND METHODS FOR USING THE SAME” (THE TRUSTEES OF INDIANA UNIVERSITY, priority 2020, published 2024).

How the values were obtained:
[1] = test system: flagellum-driven swimming and swarming motilities; conditions: has been reported
[2] = test system: bacterial biofilms; conditions: in vitro; has been reported

## CCCCCCCCC(O)/C=C/CCCCCCC(=O)O (centres unmarked) [Compound 10-HOME, (E)-10-hydroxyoctadec-8-enoic acid]
[1]
  effect on flagellum-driven swimming and swarming motilities: inhibit flagellum-driven swimming and swarming motilities
[2]
  effect on formation of bacterial biofilms: stimulate the formation of bacterial biofilms in vitro
